Experimental data: PubChem BioAssay AID330 (DTP/NCI, 2004)
“And” between values parts separate entries of the source, which are not always exact repeats. Equal values may be shown once. Inconclusive results and toxic doses are left out. The calls were made as follows: active = survival T/C of 150% or more; inactive = T/C below 125% in these data.

Test system: P388 leukemia ip, CD2F1 mice, survival T/C
Assay: NCI In Vivo Anticancer Drug Screen. Data for tumor model P388 Leukemia (intraperitoneal) in CD2F1 (CDF1) mice
Conditions: endpoint: median survival time, higher = longer survival
Procedure, shortened: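 Mice carrying the transplanted tumor received test compound or vehicle. Survival was recorded in each group, and the value is the treated-group measurement divided by that of the vehicle-treated control group.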

[1] = dose: 25.0 mg/kg/injection, schedule: Q01DX005 (ip), vehicle: Klucel (hydroxypropylcellulose) (HPC)
[2] = dose: 50.0 mg/kg/injection, schedule: Q01DX005 (ip), vehicle: Klucel (hydroxypropylcellulose) (HPC)
[3] = dose: 100.0 mg/kg/injection, schedule: Q01DX005 (ip), vehicle: Klucel (hydroxypropylcellulose) (HPC)
[4] = dose: 200.0 mg/kg/injection, schedule: Q01DX005 (ip), vehicle: Klucel (hydroxypropylcellulose) (HPC)
[5] = dose: 60.0 mg/kg/injection, schedule: Q01DX005 (ip), vehicle: Klucel (hydroxypropylcellulose) (HPC)
[6] = dose: 120.0 mg/kg/injection, schedule: Q01DX005 (ip), vehicle: Klucel (hydroxypropylcellulose) (HPC)
[7] = dose: 240.0 mg/kg/injection, schedule: Q01DX005 (ip), vehicle: Klucel (hydroxypropylcellulose) (HPC)
[8] = dose: 50.0 mg/kg/injection, schedule: Q01DX009 (ip), vehicle: saline
[9] = dose: 100.0 mg/kg/injection, schedule: Q01DX009 (ip), vehicle: saline
[10] = dose: 50.0 mg/kg/injection, schedule: Q01DX009 (ip), vehicle: saline with Tween-80
[11] = dose: 100.0 mg/kg/injection, schedule: Q01DX009 (ip), vehicle: saline with Tween-80

Measured: T/C

COc1cc2c(c(O)c1O)-c1ccc(OC)c(=O)cc1C(NC(C)=O)CC2 (stereo not given)
inactive: dose: 1.25 mg/kg/injection, schedule: Q01DX009 (ip), vehicle: water 97 % of control | dose: 2.5 mg/kg/injection, schedule: Q01DX009 (ip), vehicle: water 97 % of control | dose: 5.0 mg/kg/injection, schedule: Q01DX009 (ip), vehicle: water 100 % of control | dose: 10.0 mg/kg/injection, schedule: Q01DX009 (ip), vehicle: water 100 % of control | dose: 20.0 mg/kg/injection, schedule: Q01DX009 (ip), vehicle: water 97 % of control | dose: 40.0 mg/kg/injection, schedule: Q01DX009 (ip), vehicle: distilled water + Tween-80 108 % of control | dose: 80.0 mg/kg/injection, schedule: Q01DX009 (ip), vehicle: distilled water + Tween-80 122 % of control

CN1CCc2cc3c4cc2C1Cc1ccc(O)c(c1)Oc1ccc(cc1)CC1c2c(cc(O)c(c2O4)O3)CCN1C (stereo not given)
inactive: dose: 0.25 mg/kg/injection, schedule: Q01DX009 (ip), vehicle: saline 103 % of control | dose: 0.5 mg/kg/injection, schedule: Q01DX009 (ip), vehicle: saline 110 % of control | dose: 1.0 mg/kg/injection, schedule: Q01DX009 (ip), vehicle: saline 103 % of control | dose: 2.0 mg/kg/injection, schedule: Q01DX009 (ip), vehicle: saline 100 % of control | dose: 4.0 mg/kg/injection, schedule: Q01DX009 (ip), vehicle: saline 94 % of control

O=C(/C=C/C=C/c1ccccc1)CCc1ccccc1
inactive: [1] 95 % of control | [2] 101 % of control | [3] 100 % of control | [4] 92 % of control

CC(C)(C)[Si](C)(C)O[C@H]1C=C(S(=O)(=O)c2ccccc2)[C@H](O)C1
inactive: [5] 100 % of control | [6] 102 % of control | [7] 100 % of control

O=c1cc(C(F)(F)F)c2cc3c4c(c2o1)CCCN4CCC3
inactive: [2] 106 % of control | [3] 100 % of control | [4] 99 % of control

CC1CC12C(=O)C1=C(C(=O)C2O)C2(C)CCCC(C)(COC=O)C2C(O)C1OC=O (stereo not given)
inactive: dose: 6.25 mg/kg/injection, schedule: Q01DX005 (ip), vehicle: Klucel (hydroxypropylcellulose) (HPC) 105 % of control | dose: 12.5 mg/kg/injection, schedule: Q01DX005 (ip), vehicle: Klucel (hydroxypropylcellulose) (HPC) 105 % of control | [1] 115 % of control | [2] 101 % of control

CC(C)(C)OC(=O)NC(CCCCNC(=O)OCc1ccccc1)C(=O)O (stereo not given)
inactive: dose: 50.0 mg/kg/injection, schedule: Q01DX005 (ip), vehicle: distilled water + Tween-80 + alcohol 92 % of control | dose: 50.0 mg/kg/injection, schedule: Q01DX005 (ip), vehicle: saline 106 % of control | dose: 100.0 mg/kg/injection, schedule: Q01DX005 (ip), vehicle: distilled water + Tween-80 + alcohol 92 % of control | dose: 100.0 mg/kg/injection, schedule: Q01DX005 (ip), vehicle: saline 100 % of control | dose: 200.0 mg/kg/injection, schedule: Q01DX005 (ip), vehicle: saline 103 % of control

CCOC(=O)Cc1cc2cc(=O)[nH]cc2cc1C
inactive: dose: 12.5 mg/kg/injection, schedule: Q01DX009 (ip), vehicle: distilled water + Tween-80 94 % of control | dose: 25.0 mg/kg/injection, schedule: Q01DX009 (ip), vehicle: distilled water + Tween-80 93 % of control | dose: 50.0 mg/kg/injection, schedule: Q01DX009 (ip), vehicle: distilled water + Tween-80 90 % of control | dose: 200.0 mg/kg/injection, schedule: Q01DX009 (ip), vehicle: distilled water + Tween-80 87 % of control

O=S(=O)(O)C(I)S(=O)(=O)O
inactive: [8] 91 % of control | [9] 94 % of control

O=C(O)CCCc1ccccc1[N+](=O)[O-]
inactive: [10] 105 % of control | [11] 105 % of control | dose: 200.0 mg/kg/injection, schedule: Q01DX009 (ip), vehicle: saline with Tween-80 103 % of control | dose: 400.0 mg/kg/injection, schedule: Q01DX009 (ip), vehicle: saline with Tween-80 105 % of control

CC1C2CCC(C2)C1CNCC1C2CCC(C2)C1C (stereo not given)
inactive: dose: 12.5 mg/kg/injection, schedule: Q01DX005 (ip), vehicle: saline with Tween-80 100 % of control | dose: 25.0 mg/kg/injection, schedule: Q01DX005 (ip), vehicle: saline with Tween-80 103 % of control | dose: 50.0 mg/kg/injection, schedule: Q01DX005 (ip), vehicle: saline with Tween-80 101 % of control and 105 % of control

CCCCC(O)c1ccc[n+]([O-])c1 (stereo not given)
inactive: [8] 94 % of control | [9] 94 % of control | dose: 200.0 mg/kg/injection, schedule: Q01DX009 (ip), vehicle: saline 93 % of control

CNC(=S)NNc1nc(N(C)C)nc(N(C)C)n1
inactive: dose: 100.0 mg/kg/injection, schedule: Q04DX002 (ip), vehicle: saline with Tween-80 98 % of control | dose: 200.0 mg/kg/injection, schedule: Q04DX002 (ip), vehicle: saline with Tween-80 92 % of control | dose: 400.0 mg/kg/injection, schedule: Q04DX002 (ip), vehicle: saline with Tween-80 93 % of control

c1ccc2c(SCCCCCCCCSc3c4ccccc4nc4ccccc34)c3ccccc3nc2c1
inactive: [5] 101 % of control | [6] 86 % of control | [7] 86 % of control

CN1CCC/C1=N\C(=Nc1ccccc1)N1CCCC1
inactive: dose: 6.25 mg/kg/injection, schedule: Q01DX005 (ip), vehicle: saline 105 % of control | dose: 12.5 mg/kg/injection, schedule: Q01DX005 (ip), vehicle: saline 102 % of control | dose: 25.0 mg/kg/injection, schedule: Q01DX005 (ip), vehicle: saline 103 % of control

COC1/C=C\OC2(C)Oc3c(C)c(O)c4c(O)c(c5c(c4c3C2=O)OC[N+](C)=C5)NC(=O)/C(C)=C\C=C\C(C)C(O)C(C)C(O)C(C)C(OC(C)=O)C1C (stereo not given)
inactive: dose: 25.0 mg/kg/injection, schedule: Q01DX009 (ip), vehicle: Klucel (hydroxypropylcellulose) (HPC) 92 % of control | dose: 50.0 mg/kg/injection, schedule: Q01DX009 (ip), vehicle: Klucel (hydroxypropylcellulose) (HPC) 97 % of control | dose: 100.0 mg/kg/injection, schedule: Q01DX009 (ip), vehicle: Klucel (hydroxypropylcellulose) (HPC) 95 % of control | dose: 200.0 mg/kg/injection, schedule: Q01DX009 (ip), vehicle: Klucel (hydroxypropylcellulose) (HPC) 95 % of control

CC(C)(C)N=O
inactive: dose: 25.0 mg/kg/injection, schedule: Q01DX009 (ip), vehicle: saline with Tween-80 104 % of control | [10] 103 % of control | dose: 100.0 mg/kg/injection, schedule: Q01DX001 (ip), vehicle: saline with Tween-80 100 % of control and 106 % of control | [11] 111 % of control | dose: 200.0 mg/kg/injection, schedule: Q01DX001 (ip), vehicle: saline with Tween-80 100 % of control and 106 % of control and 109 % of control | dose: 400.0 mg/kg/injection, schedule: Q01DX001 (ip), vehicle: saline with Tween-80 105 % of control and 119 % of control | dose: 800.0 mg/kg/injection, schedule: Q01DX001 (ip), vehicle: saline with Tween-80 89 % of control

c1cc2c3c(c1)c1cc4c(cc1c[n+]3CCC2)OCO4
inactive: dose: 3.13 mg/kg/injection, schedule: Q01DX009 (ip), vehicle: water 110 % of control | dose: 25.0 mg/kg/injection, schedule: Q01DX009 (ip), vehicle: water 119 % of control and 120 % of control

COc1ccc(Cl)cc1NC(=O)c1ccco1
inactive: dose: 60.0 mg/kg/injection, schedule: Q01DX005 (ip), vehicle: saline with Tween-80 96 % of control | dose: 120.0 mg/kg/injection, schedule: Q01DX005 (ip), vehicle: saline with Tween-80 99 % of control | dose: 240.0 mg/kg/injection, schedule: Q01DX005 (ip), vehicle: saline with Tween-80 98 % of control

O=C1c2ccccc2-c2ccc(NC(=O)C34CC5CC(CC(C5)C3)C4)cc21
inactive: [2] 86 % of control | [3] 87 % of control | [4] 90 % of control

Cc1ccc(NC(=O)Oc2cc(C)c(Br)c(C)c2)cc1[N+](=O)[O-]
inactive: dose: 12.5 mg/kg/injection, schedule: Q01DX009 (ip), vehicle: saline 95 % of control | dose: 25.0 mg/kg/injection, schedule: Q01DX009 (ip), vehicle: saline 97 % of control | dose: 50.0 mg/kg/injection, schedule: Q01DX009 (ip), vehicle: saline + alcohol 98 % of control | [8] 101 % of control | dose: 200.0 mg/kg/injection, schedule: Q01DX009 (ip), vehicle: saline + alcohol 100 % of control
